The values below come from PubChem BioAssay (NCI).

Where “and” joins values, the source holds several entries; their conditions need not be identical. Equal values may be shown once.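 48-hour exposure; five concentrations; linearly interpolated endpoints. GI50: concentration for 50% inhibition of growth. TGI denotes the concentration required for complete inhibition of growth.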

For this experiment, the system named is MDA-MB-468 breast. Kind of experiment: NCI tumour cell line growth inhibition, 48 h.
As for `C=C1C(=O)O[C@H]2[C@H]1CC/C(COC(=O)/C=C/c1c[nH]c3ccccc13)=C\CC[C@@]1(C)O[C@@H]21`, the GI50 is 0.196 µM and the TGI is 0.404 µM.

As for `C=C1C[C@@H]2[C@H](CC[C@]3(C)C(=O)CC[C@@H]23)[C@@]2(C)C=CC(=O)C=C12`, the GI50 was 14.6 µM and the TGI was determined as 65.2 µM.

Turning to `Cn1c(O)c(N=NC(N)=S)c2ccccc21`, the GI50 was 20.4 µM and the TGI is greater than 100 µM.

As for `O=C(c1ccccc1)c1ccccc1C(=O)c1ccccc1`, the GI50 was 28.7 µM and the TGI is greater than 100 µM.

For the compound `O=c1[nH]cnc2nc(-c3ccc(N(CCCl)CCCl)cc3)[nH]c12`, the GI50 was greater than 100 µM and the TGI is greater than 100 µM.

Take `OC1CCN(CCCOc2c3ccccc3nc3c2oc2ccc(Cl)cc23)CC1`: the GI50 was 1.61 µM and the TGI came out at 5.71 µM.

As for `CC(C)(F)C[C@H](N[C@@H](c1ccc(-c2ccc(S(C)(=O)=O)cc2)cc1)C(F)(F)F)C(=O)NC1(C#N)CC1`, the GI50 was 54.4 µM and > 100 µM; the TGI was 55 µM and > 100 µM.

With `Cc1[nH]n(-c2ccccc2)c(=O)c1C(=O)c1ccccc1`, the GI50 is 17.5 µM and the TGI was greater than 25 µM.

Turning to `Cc1ccc(S(=O)(=O)c2ccsc2N)cc1`, the GI50 is 36.7 µM and the TGI was greater than 100 µM.

Turning to `C[C@H]1CC2=CC(=O)CC[C@]2(C)[C@H]2CC[C@@]3(C)[C@@H](CC[C@]3(C)O)[C@H]12`, the GI50 is 33.9 µM and the TGI was greater than 100 µM.

With `O[C@H](CN1CC1)[C@@H](O)CN1CC1`, the GI50 is 0.389 µM and the TGI was determined as 2.65 µM.

With `CC1(C)N=C(N)N=C(N)N1c1ccc(OCCCCNC(=O)c2ccc(S(=O)(=O)F)cc2)c(Cl)c1`, the GI50 was 18.4 µM and the TGI is greater than 100 µM.

`Cc1ccc2cnc(N)c(C#Cc3cncc(C(=O)Nc4ccc(CN5CCN(C)CC5)c(C(F)(F)F)c4)c3)c2c1`: the GI50 was 0.662 µM and the TGI was determined as 1.47 µM.

On to `COc1cc2c(cc1O)CC[C@@H]1C2CC[C@@]2(C)C1CC[C@@H]2O` (stereo partly drawn), for which the GI50 is 31.1 µM and the TGI was greater than 100 µM.

Regarding `COc1ccc(S(=O)(=O)n2c3ccccc3n3ncc(-c4nnc(C)o4)c23)cc1`, the GI50 is 0.266 µM and the TGI is 5.49 µM.

With `CCCNc1cccc(-n2ncc3c(N/N=C/c4ccncc4)ncnc32)c1`, the GI50 is 0.768 µM and the TGI was greater than 25 µM.

Take `CC[C@H](C)[C@H](NC(=O)c1nccn1C)C(=O)N(C)[C@H](C[C@@H](OC(C)=O)c1nc(C(=O)N[C@@H](Cc2ccccc2)C[C@H](C)C(=O)OC)cs1)C(C)C`: the GI50 is 0.427 µM and the TGI was greater than 33.3 µM.

Regarding `O=S1(=O)CC(Br)C(Br)C1` (stereo not drawn), the GI50 is 1.39 µM and the TGI came out at 3.82 µM.

In the case of `CS(=O)(=O)Nc1cc(-c2ccc3ncnc(Nc4cccc(Cl)c4F)c3c2)cnc1Cl`, the GI50 was 1.28 µM and the TGI was 3.44 µM.

For the compound `C=C(C)[C@@H]1CC[C@]2(C)[C@H](CC=C3[C@@H]4[C@H](C)[C@@H](C)CC[C@]4(CO)CC[C@]32C)[C@@]1(C)CCCN`, the GI50 is 0.819 µM and the TGI is 1.66 µM.

For the compound `FC(F)(F)c1cc(NC2=NCCN=C(Nc3cc(C(F)(F)F)cc(C(F)(F)F)c3)SS2)cc(C(F)(F)F)c1`, the GI50 is 2.07 µM and the TGI was determined as 7.45 µM.

Take `O=C(O)c1ccc2cccnc2c1O`: the GI50 is 1.41 µM and the TGI was 6.5 µM.

Turning to `Cc1ccc(/C=C2\CN(Cc3cn(CCNc4ccnc5cc(Cl)ccc45)nn3)C/C(=C\c3ccc(C)cc3)C2=O)cc1`, the GI50 is 1.62 µM and the TGI came to 3.72 µM.

As for `Cc1cc(Cl)ccc1NC(=O)NC(C)(C)COC(=O)Nc1cccc(Cl)c1`, the GI50 is 4.61 µM and the TGI was determined as 36 µM.

As to `N#CC1CCc2c(c(-c3cn[nH]c3C(F)(F)F)nc3c(F)cc4[nH]ncc4c23)C1` (stereo not drawn), the GI50 is 2.19 µM and the TGI was 6.23 µM.

With `Brc1ccc2c(c1)c(-c1nc(-c3c[nH]c4ncccc34)cs1)cn2CCCN1CCCCC1`, the GI50 was 1.7 µM and the TGI stood at 3.25 µM.

With `C#CCOc1cccc(Nc2ncc3ncn(C4CCN(C(=O)CCl)C4)c3n2)c1` (stereo not drawn), the GI50 is 19.7 µM and the TGI was greater than 62.5 µM.

`NC(=S)N/N=C\c1nccc2c(C(F)(F)C(F)(F)C(F)(F)F)cccc12`: the GI50 was 0.04 µM and the TGI worked out at 0.262 µM.

In the case of `CCN(CC)CCOc1nc2cc(OC)c(OC)cc2c2c1-c1ccc(OC)cc1C2=O`, the GI50 is 10.1 µM and the TGI is 23.1 µM.

Turning to `CN1CCc2c(sc3ncnc(N/N=C/c4ccc(Cl)c(Cl)c4)c23)C1`, the GI50 was 10.9 µM and the TGI was determined as 25.8 µM.

With `O=C(Nc1ccc(-c2ccnc(Nc3ccc(N4CCOCC4)cc3)n2)cc1)C1CCCN1` (stereo not drawn), the GI50 was 10.2 µM and the TGI is 26.3 µM.

Take `N#Cc1ncc(N2C(=O)C3(CCC3)N(c3ccc(OC4CCNCC4)nc3)C2=S)cc1C(F)(F)F`: the GI50 is 9.8 µM and the TGI was 24.6 µM.

In the case of `Cc1nc2sc(C(=O)Nc3cccc(Cl)c3C)c(N)c2cc1C(C)O` (stereo not drawn), the GI50 was 0.0712 µM and the TGI came out at 4.44 µM.

Turning to `NS(=O)(=O)c1ccc(Nc2nc(N/N=C/c3ccccn3)nc(Nc3ccccc3)n2)cc1`, the GI50 was 0.318 µM and the TGI amounted to 2.01 µM.

As to `COc1cc(CNC(=O)CCSc2nc3ccccc3c(=O)n2Cc2cc(OC)c(OC)c(OC)c2)cc(OC)c1OC`, the GI50 is 2.35 µM and the TGI worked out at 9.67 µM.

In the case of `c1cc2ccc1CNCCN1CCNCc3ccc(cc3)Oc3ccc(cc3)CNCCN(CCNCc3ccc(cc3)O2)CCNCc2ccc(cc2)Oc2ccc(cc2)CNCC1`, the GI50 was 0.673 µM and the TGI amounted to 2.09 µM.

In the case of `O=C(Nc1cccc([N+](=O)[O-])c1)c1cc2ccccc2cc1O`, the GI50 was 2.32 µM and the TGI was determined as 17.5 µM.

Take `CCC(=O)OC1=CN2C(=NC(c3ccc(N)cc3)=CC2c2cc(OC)c(OC)c(OC)c2)S1` (stereo not drawn): the GI50 is 2.1 µM and the TGI stood at 6.32 µM.

As to `O=c1oc2cc(OS(=O)(=O)c3ccccc3)ccc2c2c1CCCCC2`, the GI50 is 2.85 µM and the TGI is greater than 100 µM.
